These results are taken from publication PMC7247319, “The mitochondria-targeted peptide SS-31 binds lipid bilayers and modulates surface electrostatics as a key component of its mechanism of action” (The Journal of Biological Chemistry, 2020).

Where a SMILES comes first, the peptide text is derived from it. [ ]: non-standard residue; d: D form. Dmt = Cc1cc(O)cc(C)c1C[C@H](N)C(=O)O

For the test, the system named is LUVs composed of POPC alone or with 20% TOCL, MLCL, or POPG. Nature of the test: Synchrotron SAXS and 31P solid-state NMR of model membranes. The following applies: highest peptide concentration, [P]/[L]^eff = 1:5; 2 mM total lipid. An excerpt: Amphipathic molecules such as antimicrobial peptides can induce large structural changes in membranes, including micellization, pore formation, and induction of inverted topologies ([45]). We therefore addressed whether SS-31 induced structural polymorphism within model bilayers using a range of approaches (Fig. 4). […] Similarly, based on ^31P solid-state NMR (ssNMR) measurements, these model membranes yielded line shapes consistent with lamellar bilayers ([47]), and we observed no effect of SS-31 on bilayer structure (Fig. 4B, supporting Results F, and Fig. S10B). […] Thus, these membranes are expected to exist stably in the liquid crystalline lamellar mesophase over all peptide concentrations.
Figure 4. Effects of SS-31 on structural properties of model membranes. […] LUVs composed of 20% anionic lipid (TOCL, MLCL, or POPG) in POPC background were measured in the absence or presence of peptide ([SS-31]/[lipid]^eff = 1:5) as indicated. […] Data and fits in gray show SS-31 fractional saturation (calculated from Fig. 2A, [lipid]^eff = 25 μM). […]
NMR data were recorded at 162 MHz on a Bruker AVANCE III 400-MHz WB spectrometer equipped with an HXY probe tuned for ^1H and ^31P. […] Model membranes (LUVs) were measured at 25 °C (total of 10,240 scans/sample) with a total lipid concentration of 2 mM lipid in the presence of different concentrations of SS-31 (0, 1:500, 1:50, and 1:5 [P]/[L]^eff). […]

As to `Cc1cc(O)cc(C)c1C[C@H](NC(=O)[C@H](N)CCCNC(=N)N)C(=O)N[C@@H](CCCCN)C(=O)N[C@@H](Cc1ccccc1)C(N)=O` [SS-31, D-Arg-2′6′-dimethyl-Tyr-Lys-Phe-NH2] (H-[dR][Dmt]KF-NH2), the “effect on bilayer structure / lamellarity (SAXS, 31P ssNMR)” value is recorded as “did not cause major topological alterations”.
